Assay results from EP0694545B1, “Substituted dibenzoxazepine compounds, pharmaceutical compositions and methods of use” (G.D. SEARLE & CO., priority 1991, dated 1992).

Assays:
[1] = test system: prostaglandin E2-induced contractions of segments of guinea pig ileum; assay: Prostaglandin (PGE) Antagonism Assay in guinea pig ileum; type: cell-based; design: key to PGE ANTAGONISM IN GUINEA PIG ILEUM (Active): Active: A concentration of test compound was determined to be "active" if it produced a dose ratio significantly greater than that obtained in a series of blank treatments; details: for Kb: Cavia porcellus, read-out: PGE ANTAGONISM IN GUINEA PIG ILEUM (pA2) (converted); for PGE ANTAGONISM IN GUINEA PIG ILEUM (Active): initial concentration of test compound, dose ratio of EC50 dose values versus blank treatments
Description: In order to determine the effectiveness of several of the compounds of the present invention ("test compounds") as prostaglandin E2 antagonists, a prostaglandin antagonism assay was conducted, as described below, to determine the ability of these compounds to inhibit prostaglandin E2-induced contractions of segments of guinea pig ileum.
Male albino guinea pigs weighing 200 to 500 grams were sacrificed by cervical dislocation.
The ileums were then quickly removed from the guinea pigs and placed in a modified Tyrode solution, a solution which is known to those of skill in the art, containing one-half of the usual amount of magnesium ions.
Segments of ileum about 2 cm long were then cut and mounted in a 10-mL tissue bath containing the modified Tyrode solution. The solution was maintained at 37°C and aerated with a gaseous mixture of 95% oxygen and 5% carbon dioxide.
Submaximal contractions of the ileum segments were then generated by injecting prostaglandin E2 into the bath, and detected isotonically. Data for a control prostaglandin E2 dose response curve plotting concentration of prostaglandin E2 versus number of contractions generated was then obtained by experimentally adjusting the dose of the prostaglandin E2 being injected into the tissue bath, in a manner known by those of skill in the art.
Solutions or suspensions containing an initial amount of a test compound in modified Tyrode solution ("test solutions/ suspensions") were then separately substituted for the tissue bath. Each test solution/suspension was then kept in constant contact with the ileum tissue, except for brief periods to drain the bath in preparation for rinsing with fresh test solution/suspension. Different doses of prostaglandin E2 were again injected into the test solutions/suspensions.
A second prostaglandin E2 dose response curve was then generated for prostaglandin E2 in the presence of a test compound.
A dose ratio of EC50 dose values was then calculated from the results of each test in a manner known by those of skill in the art. […] Duplicate tests were conducted on each concentration of test compound.
If the initial concentration of a test compound was determined to be "active," then varying concentrations of the test compound were then assayed. As is shown in Table I below, all test compounds analyzed in this assay were determined to be "active" as prostaglandin E2 antagonists at the initial concentration.
The pA2 value (a statistical constant which is a common measure of expressing the potency of a particular drug as a competitive antagonist) was then calculated for each test compound by schild plot calculations, as described by H. O. Schild, "pA, A New Scale for the Measurement of Drug Antagonism," Br. J. Pharmacol, 2, 189 (1947), according to the following mathematical formula: pA2 = -log[Test Compound] to quantitate the effectiveness of the test compounds as prostaglandin E2 antagonists.

[2] = test system: Charles River male albino mice; assay: PBQ Writhing Assay (analgesic activity); type: in vivo; details: for ED50: Mus musculus, po, read-out: PBQ WRITHING ASSAY (ED50 (mpk)) I.G.; for PBQ WRITHING ASSAY I.G. (Active / *): intragastric; for PBQ WRITHING ASSAY I.G. (Active / *) / PBQ WRITHING ASSAY S.C. (Active / *): initial screening dose 30 mg per kilogram, 30 min before PBQ i.p., writhes counted for ten minutes; for PBQ WRITHING ASSAY S.C. (Active / *): subcutaneous
Source text: The Writhing Assay is one of the most widely-used experimental procedures for measuring the analgesic activity of different narcotic and nonnarcotic analgesic agents, and involves the continuous, chemically-induced pain of visceral origin to an animal, such as a mouse or rat. [Gyires et al., Arch. int. Pharmacodyn, 267, 131-140 (1984); […] al., Fed. Proc., 15, 494 (1956); Koster et al., Fed. Proc., 18, 412 (1959); and Witken et al., J. Pharmacol. exp. Ther., 133, 400-408 (1961).] Chemicals which may be used to induce this pain include phenylbenzoquinone (PBQ) and acetic acid. As a result of the chemical irritation to the animal, a characteristic stretching and writhing of the animal (dorsiflexion of the animal's back, extension of its hindlimbs and the strong contraction of its abdominal musculature) will generally occur. […] Drugs which reduce the number of writhes of the animal appear to restore the normal nociceptive threshold of the animal. Charles River male albino mice, weighing 20 to 30 grams were used in this assay. Thirty minutes after subcutaneous or intragastric administration to ten mice of 30 mg per kilogram of body weight of a compound of the present invention ("test compound"), […] per 10 g of body weight of a 0.025% w/v solution of PBQ was injected intraperitoneally into each mouse. Ten mice which were given saline in place of a test compound of the invention were used as a control group. Five minutes later, each mouse was individually placed into a glass beaker for observation, and the number of writhes occurring during the following ten-minute period was counted. A test compound was considered to have produced analgesia in a mouse if, in accordance with the conditions set forth above, and under the test criteria employed for this assay, after the administration of 30 mg per kilogram of body weight of a compound of the present invention to the mouse, the number of writhes elicited by a mouse injected with PBQ was equal to, or less than, one-half the median number of writhes recorded for the saline-treated control group of mice that day, as described by Taber in "Predictive Value of Analgesic Assays in Mice and Rats," Advances in Biochemical Psychopharmacology, 8, 191 (1974). The standard initial screening dose of a test compound employed in this assay was […] for both routes of administration. If this initial screening dose of the test compound produced analgesia in seven of ten mice, then the effect of additional doses of the test compound on the writhing response was evaluated, and then the ED50 dose was generally calculated. (The slopes of the dose-response curves for all test compounds analyzed were compared as described by Tallarida and Murray, Manual of Pharmacologic Calculations, Page 11 (Springer Verlag, New York, 1981)).

Compound | Kb ([1]; Schild plot calculation) [µM] | PGE ANTAGONISM IN GUINEA PIG ILEUM (Active) [1] | ED50 ([2]; intragastric administration) [mg/kg] | PBQ WRITHING ASSAY I.G. (Active / *) [2] | PBQ WRITHING ASSAY S.C. (Active / *) [2] | PGE ANTAGONISM IN GUINEA PIG ILEUM (pA2) ([1]; Schild plot calculation) | PBQ WRITHING ASSAY (ED50 (mpk)) I.G. ([2]; intragastric administration) [mpk] | PBQ WRITHING ASSAY (ED50 (mpk)) S.C. ([2]; subcutaneous administration) [mpk]
O=C(CCCc1cccs1)NNC(=O)N1Cc2ccccc2Oc2ccc(Cl)cc21 [Example 9, 8-chlorodibenz[b,f][1,4]oxazepine-10(11H)-carboxylic acid, 2-[1-oxo-4-(2-thienyl)butyl]hydrazide] | 0.0251 | Active | 6.8 | Active | Active | – | – | –
O=C(CCc1ccccn1)NNC(=O)N1Cc2ccccc2Oc2ccc(Cl)cc21 [Example 6, 8-chlorodibenz[b,f][1,4]oxazepine-10(11H)-carboxylic acid, 2-[1-oxo-3-(2-pyridinyl)propyl]hydrazide] | 2.51 | Active | 8.6 | Active | Active | – | – | –
8-chlorodibenz[b,f][1,4]oxazepine-10(11H)-carboxylic acid, 2-[1-oxo-3-(4-pyridinyl)propyl]hydrazide, monohydrochloride [Example 26] | – | Active | – | Active | Active | 6.5 | 6.8 | 6.3
